Results taken from paper PMC3101270 (Biochemistry, 2011).

Key:
PfOPRT [1] = molecular target: T1, PfOPRT (Plasmodium falciparum, UniProt Q8N0R1); experiment: enzyme inhibition; assay type: biochemical
T1 sequence (Q8N0R1 1-281): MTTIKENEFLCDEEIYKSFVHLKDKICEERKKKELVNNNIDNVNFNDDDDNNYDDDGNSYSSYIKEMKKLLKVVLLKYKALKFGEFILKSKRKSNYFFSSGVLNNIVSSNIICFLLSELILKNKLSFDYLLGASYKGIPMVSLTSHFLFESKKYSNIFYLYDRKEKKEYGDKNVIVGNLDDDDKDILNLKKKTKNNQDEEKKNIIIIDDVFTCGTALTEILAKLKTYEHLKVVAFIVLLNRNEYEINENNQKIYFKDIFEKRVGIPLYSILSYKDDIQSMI

HsOPRT [2] = molecular target: T2, HsOPRT (Homo sapiens, UniProt P11172); experiment: enzyme inhibition; assay type: biochemical
T2 sequence (P11172 2-214 limits assumed): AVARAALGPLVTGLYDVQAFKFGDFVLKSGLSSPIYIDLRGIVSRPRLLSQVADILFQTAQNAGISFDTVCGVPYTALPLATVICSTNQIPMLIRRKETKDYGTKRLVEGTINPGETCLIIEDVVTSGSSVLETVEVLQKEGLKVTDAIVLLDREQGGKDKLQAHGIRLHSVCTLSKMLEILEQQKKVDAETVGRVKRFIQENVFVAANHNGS

HsOPRT [3] = molecular target: T2, HsOPRT; experiment: ultrafiltration with 3H/[…]-labelled ligand; assay type: binding
PfOPRT [4] = molecular target: T1, PfOPRT; experiment: ultrafiltration with 3H/[…]-labelled ligand; assay type: binding

O=S(=O)(O)O [sulfate]
Ki (PfOPRT [1]): 3100 ± 300 µM
Ki (HsOPRT [2]): 17600 ± 2800 µM

O=C(O)c1cc(=O)[nH]c(=O)n1[C@@H]1O[C@H](COP(=O)(O)O)[C@@H](O)[C@H]1O [OMP]
Kd (HsOPRT [3]): 2.5 ± 1.2 µM
Kd (PfOPRT [4]): 3.1 ± 1.6 µM
